Assay results from US8039603B2, “Nucleic acid and corresponding protein entitled 121P1F1 useful in treatment and detection of cancer” (Agensys, Inc., priority 2001, dated 2011).

System: LAPC-4 cells
Assay: Androgen regulation of 121P1F1 in vitro (Northern blot)
Format: cell-based, human
Conditions: LAPC-4 cells in charcoal-stripped medium
Description: FIG. 22. Androgen regulation of 121P1F1 in vitro. […] cells were grown in charcoal-stripped medium and stimulated with the synthetic androgen mibolerone, for either 14 or 24 hours. Northern blot was performed with 10 μg of total RNA for each sample, and probed with the 121P1F1 SSH fragment. A picture of the ethidium-bromide staining of the RNA gel is also presented (lowest panel). Hybridization of the same northern blot with the androgen-dependent gene TMPRSS2 confirms the quality of the androgen deprivation.
Since 121P1F1 was derived from a […] LAPC-9 AD (28 days post-castration) subtraction, an assay was performed for androgen regulation of 121P1F1 (FIG. 22). LAPC-4 cells were grown in charcoal-stripped medium and stimulated with the synthetic androgen mibolerone, for either 14 or 24 hours. It was shown that the expression of 121P1F1 went down in absence of normal serum, and is modulated in presence of mibolerone, 24 hours after stimulation. The experimental samples were confirmed by testing for the expression of the androgen-regulated prostate cancer gene TMPRSS2.

C[C@@H]1CC2=CC(=O)CC[C@@H]2[C@H]2CC[C@@]3(C)[C@@H](CC[C@]3(C)O)[C@@H]21 [mibolerone]
expression of 121P1F1 (24 hours after stimulation): modulated | TMPRSS2 expression (at 14 and 24 hours): induced
